In data set [1] the target is T1, DDX3X helicase activity (Homo sapiens, UniProt O00571).
T1 construct: Recombinant his-tagged human full length DDX3X; His tag; made in house; host or cells: ShuffleT7 E. coli
Nature of the data set: FRET-based DDX3X helicase assay. The format is biochemical. The note with it: FRET helicase assay, recombinant DDX3X; for IC50: read-out: IC50 ± SD, DDX3X anti-enzymatic (helicase) activity. As to the method:
Recombinant his-tagged human full length DDX3X cloned the E. coli expression vector pET-30a(+). ShuffleT7 E. coli cells were transformed with the plasmid and grown at 37 °C up to OD600 = 0.7. DDX3X expression was induced with 0.5 mM IPTG at 15 °C O/N. Cells were harvested by centrifugation, lysed, and the crude extract was centrifuged at 100,000 g for 60 min at 4 °C in a Beckman centrifuge before being loaded onto a FPLC Ni-NTA column (GE Healthcare, Chicago, IL, USA). The column was equilibrated in Buffer A (50 mM Tris-HCl pH 8.0, 250 mM NaCl, 25 mM Imidazole and 20% glycerol). After extensive washing in Buffer A, the column was eluted with a linear gradient in Buffer A from 25 to 250 mM Imidazole. Proteins in the eluted fractions were visualized on SDS-PAGE and tested for the presence of DDX3X by Western blot with anti-DDX3X A300-475A (Bethyl Laboratories, Montgomery, TX, USA) at 1:4000 dilution in 5% milk. Fractions containing the purest DDX3X protein were pooled and stored at −80 °C.
The dsRNA substrate for the helicase assay was prepared by hybridizing two ss RNA oligonucleotides with the following sequences: • Fluo-FAM 5′ […] 3′ • Qu-BHQ1 5′ […] 3′ • DNA capture 5′ […] 3′.
The sequence in Fluo-FAM complementary to Qu-BHQ1 is underlined. Fluo-FAM carries a 6-carboxyfluorescein fluorophore at its 3′ end, while Qu-BHQ1 carries a Black Hole quencher group at its 5′ end. The DNA capture oligonucleotide is complementary to the Qu-BHQ1 oligonucleotide, but it bears no modifications. A helicase assay using the dsRNA substrate was performed in 20 mM TrisHCl (pH 8), 70 mM KCl, 2 mM MgCl2, 2 mM dithiothreititol, 12 units RNasin (Promega), 2 mM ATP, 50 nM dsRNA, and 100 nM capture strand in 20 μL of reaction volume. The unwinding reaction was started by adding 60 pmols of DDX3X recombinant protein and carried out at 37 °C for 40 min using a LightCycler 480 (Roche, Basel, Switzerland). The fluorescence intensity was recorded every 30 s. Values of fluorescence signal in the presence or in the absence of inhibitor molecules were analyzed by linear interpolation, and the corresponding slope values were used to determine the apparent unwinding rate.
The IC50 values have been calculated from dose–response curves. Data (in triplicate) were plotted and analyzed by least-squares nonlinear regression, according to the method of Marquardt–Levenberg, with the computer program GraphPad Prism 6.0. Data were fitted to the following equation:Eobs = Emax/(1 + (IC50/[I])^n)(1) where E(obs) is the observed enzymatic activity in the presence of each inhibitor dose [I]; E(max) is the maximal enzymatic activity in the absence of the inhibitor; and n is an exponential term to take into account sigmoidal dose–response curves.
All the compounds were tested for their ability to inhibit the helicase activity of DDX3X using a fluorescence resonance energy transfer (FRET)-based assay, as previously described. Values of fluorescence signal in the presence or in the absence of inhibitor molecules were analyzed by linear interpolation (for details, see Methods 2.3.2).

Data set [2] concerns the target T2, ATPase DDX3X (Homo sapiens, UniProt O00571).
T2 construct: Recombinant his-tagged human full length DDX3X; His tag; made in house; host or cells: ShuffleT7 E. coli
Nature of the data set: DDX3X ATPase activity inhibition. The format is biochemical. Conditions: for IC50: >200 = less than 20% inhibition at 200 µM, highest concentration tested, read-out: ATPase DDX3X IC50 ± SD. The source says: To confirm the proposed mechanism of action and the selectivity of our compounds for the helicase binding site, we tested the capability of BA103 to inhibit the ATPase activity of DDX3X and the helicase activity of DDX1, which is another human member of the DEAD-box family.

Data set [3] in a line: PK and biodistribution in BALB/c mice. The format is in vivo. The note with it: for half-life: 50 mg/kg. As to the method:
Figure 8 PK and biodistribution of BA103 in BALB/c mice at the single dose of 50 mg/kg i.p. (A) Plasmatic distribution and PK parameters. Concentration levels ± SD of BA103 in (B) kidneys, (C) liver, and (D) brain. TEXT PRINTED IN THE PICTURE: (A) no label printed: t1/2 (min): 299.6; Cmax (μg/ml): 18.2; AUC 0-t (μg/ml*min): 1817.6; AUC 0-inf_obs (μg/ml*min): 1850.7; Vz/F_obs ((mg/kg)/(μg/ml)): 11.7; Cl/F_obs ((mg/kg)/(μg/ml)/min): 0.1 DOUBTS OF THE COPYIST ABOUT THIS PICTURE: Panel A table: the picture prints no substance label / Panel A table, Vz/F_obs and Cl/F_obs: the underscore may be hidden by the table line (could be 'Vz/F obs', 'Cl/F obs')
Thus, preliminary PK and biodistribution studies were performed on two groups of BALB/c mice (CTRL and BA103-treated) at the single intraperitoneal (i.p.) dose of 50 mg/kg. BA103 was slowly eliminated from plasma, with a half time (t1/2) of about 5 h. […] Even if the PK analysis was conducted in healthy mice, with an intact BBB, the data are of great importance, since the majority of drugs are unable to reach the tumor environment due to their low permeability.

The mark [4] stands for this setting: BALB/c, mouse, ip, plasma, single dose 50 mg/kg i.p.

Like-named read-outs stand apart in the source and are kept apart here.

T1 sequence (O00571 whole entry): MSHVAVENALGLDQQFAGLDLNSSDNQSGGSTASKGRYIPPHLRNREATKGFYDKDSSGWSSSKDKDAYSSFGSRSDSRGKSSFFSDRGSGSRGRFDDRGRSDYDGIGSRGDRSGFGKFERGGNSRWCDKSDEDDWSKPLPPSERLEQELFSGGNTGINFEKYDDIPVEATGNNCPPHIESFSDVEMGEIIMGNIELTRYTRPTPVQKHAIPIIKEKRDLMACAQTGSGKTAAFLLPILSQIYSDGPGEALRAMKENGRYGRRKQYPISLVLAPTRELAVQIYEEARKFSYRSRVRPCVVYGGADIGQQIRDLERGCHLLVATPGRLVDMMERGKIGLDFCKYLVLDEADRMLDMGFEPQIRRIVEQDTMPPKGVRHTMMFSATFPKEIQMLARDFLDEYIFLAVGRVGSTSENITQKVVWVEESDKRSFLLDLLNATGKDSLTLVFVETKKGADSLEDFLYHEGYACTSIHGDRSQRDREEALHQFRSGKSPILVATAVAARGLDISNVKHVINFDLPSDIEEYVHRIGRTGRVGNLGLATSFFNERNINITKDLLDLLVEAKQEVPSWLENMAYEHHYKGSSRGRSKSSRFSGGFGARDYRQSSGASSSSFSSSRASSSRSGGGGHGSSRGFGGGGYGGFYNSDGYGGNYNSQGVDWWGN
T2 sequence (O00571 whole entry): as above

As to `CCCCc1cn(-c2ccc(NC(=O)Nc3ccccc3C(F)(F)F)cc2)nn1` [BA103, 1-(4-(4-Butyl-1H-1,2,3-triazol-1-yl)phenyl)-3-(2-(trifluoromethyl)phenyl)urea], in data set [1], the “IC50 ± SD, DDX3X anti-enzymatic (helicase) activity” value (from here on “IC50 ± SD, DDX3X anti-enzymatic”) was “submicromolar range” and the IC50 worked out at 400 ± 50 nM. Further, in data set [2], the concentration for half-maximal inhibition (IC50) is more than 200000 nM. The “inhibition of the ATPase activity of DDX3X” value in data set [2] (any compound concentration) was “no inhibition”. For the same molecule, in data set [3] (setting [4]), the AUC(0-t) is 30300 ng·h/mL and the peak level (Cmax) was 18200 ng/mL. Further, the AUC(0-inf) in data set [3] (BALB/c, mouse, ip, plasma, single dose 50 mg/kg i.p., read-out: AUC 0-inf_obs (converted)) was 30800 ng·h/mL. Further, the half-life in data set [3] (BALB/c, mouse, plasma, ip, plasma, single dose 50 mg/kg i.p., read-out: t1/2) was 4.99 h. Besides, in data set [3] (BALB/c, mouse, plasma, ip, single dose 50 mg/kg i.p., read-out: half time (t1/2) of elimination from plasma (converted)), the half-life is approximately 5 h. The apparent clearance (CL/F) in data set [3] (BALB/c, mouse, plasma, ip, single dose 50 mg/kg i.p.) came out at 100 mL/min/kg. The Vd/F in data set [3] (BALB/c, mouse, plasma, ip, single dose 50 mg/kg i.p., read-out: Vz/F_obs) came to 11.7 L/kg. Moreover, the “brain distribution / blood–brain barrier crossing” value in data set [3] (healthy mice, 50 mg/kg i.p.) is on record as “ability to cross the blood–brain barrier”.
On to `CCCCc1cn(-c2ccc(NC(=O)Nc3ccccc3C)cc2)nn1` [Compound 1, reference compound], for which the figures for the concentration for half-maximal inhibition (IC50) in data set [1] and in data set [2] were 300 ± 70 nM and more than 200000 nM, respectively.
Turning to `CCCCc1nnc(-c2ccc(NC(=O)Nc3ccccc3C(F)(F)F)cc2)[nH]1` [Compound 4, 1-(4-(5-Butyl-4H-1,2,4-triazol-3-yl)phenyl)-3-(2-(trifluoromethyl)phenyl)urea], in data set [1], the “IC50 ± SD, DDX3X anti-enzymatic” value is reported as “submicromolar range” and the concentration for half-maximal inhibition (IC50) stood at 70 ± 20 nM.
Consider `CCCCn1nnc(-c2ccc(NC(=O)Nc3ccccc3C(F)(F)F)cc2)n1` [Compound 6, 1-(4-(2-Butyl-2H-tetrazol-5-yl)phenyl)-3-(2-(trifluoromethyl)phenyl)urea], for which the “IC50 ± SD, DDX3X anti-enzymatic” value in data set [1] was “submicromolar range”.
Turning to `CC(C)CCc1cn(-c2ccc(NC(=O)Nc3cccc4cnccc34)cn2)nn1` [Compound 10, 1-(6-(4-Isopentyl-1H-1,2,3-triazol-1-yl)pyridin-3-yl)-3-(isoquinolin-5-yl)urea], in data set [1], the “IC50 ± SD, DDX3X anti-enzymatic” value was “submicromolar range” and the 50% inhibitory concentration (IC50) came out at 100 ± 30 nM.

The term IC50 denotes the concentration at which inhibition is half-maximal. The AUC(0-t) is exposure summed from dosing to a finite time, without extrapolation to infinity. High values mean high exposure, low ones low exposure. In general, Cmax refers to the peak of the concentration-time curve. For orientation: CL/F means the apparent clearance, not corrected for the fraction that reaches the circulation.

Source of the values: article PMC8582824, “Targeting DDX3X Helicase Activity with BA103 Shows Promising Therapeutic Effects in Preclinical Glioblastoma Models” (Cancers, 2021).
